US5578479A, “Alpha-amylase from hyperthermophilic archaebacterium” (The Johns Hopkins University, priority 1992, dated 1996)
Where a name gives a salt, the structure may show the parent alone.

What was measured:
[1] = molecular target: T1, Pyrococcus furiosus α-amylase, purified, wild type, SEQ ID NO:1 (Pyrococcus furiosus, UniProt P49067); assay: activity stained native-PAGE after heating samples with additive; type: biochemical; settings: sample heated 15 minutes
T1 construct: made in house; host or cells: Pyrococcus furiosus DSM 3638, native cells (not recombinant); cytosolic fraction, three ion exchange steps and electroelution
T1 sequence (P49067 2-649): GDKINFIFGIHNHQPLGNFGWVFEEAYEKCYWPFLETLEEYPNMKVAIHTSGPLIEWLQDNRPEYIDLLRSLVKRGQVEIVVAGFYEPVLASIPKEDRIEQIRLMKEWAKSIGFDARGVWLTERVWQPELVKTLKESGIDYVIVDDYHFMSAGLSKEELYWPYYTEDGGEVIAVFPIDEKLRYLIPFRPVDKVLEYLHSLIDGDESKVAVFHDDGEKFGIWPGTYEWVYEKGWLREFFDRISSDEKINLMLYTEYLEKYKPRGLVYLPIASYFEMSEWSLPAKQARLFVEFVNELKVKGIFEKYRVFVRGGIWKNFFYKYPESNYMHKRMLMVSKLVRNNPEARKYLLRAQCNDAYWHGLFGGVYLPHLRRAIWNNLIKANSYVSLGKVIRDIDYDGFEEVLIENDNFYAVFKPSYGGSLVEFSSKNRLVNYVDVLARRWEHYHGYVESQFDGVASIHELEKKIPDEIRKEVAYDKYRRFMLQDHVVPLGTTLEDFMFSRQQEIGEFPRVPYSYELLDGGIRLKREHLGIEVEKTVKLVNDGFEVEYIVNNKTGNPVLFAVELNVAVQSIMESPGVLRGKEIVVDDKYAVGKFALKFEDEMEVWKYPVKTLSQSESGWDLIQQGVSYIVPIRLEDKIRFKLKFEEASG
Protocol: Samples were heated 15 min in the following: Lane 1, 100 mM sodium phosphate pH 7.0; Lane 2, 5 mM EDTA; Lane 3, % SDS; Lane 4, 12% β-mercaptoethanol. The samples were run on a native gel (8% acrylamide), containing 0.02% starch, and stained as described in the Examples.
Activity staining was accomplished by the incorporation of starch into the acrylamide matrix of the resolving gel. When preparing the gels, as described above, 0.05% soluble starch was used in place of distilled water when the gels were cast. To observe the thermophilic amylase activity following electrophoresis the spacers and the gel left between the glass plates were sealed with Saran Wrap to prevent dessication. The gel, between the plates, was then incubated for 30 minutes at 98° C., then stained with iodine solution (see above). […] Following this procedure it was still possible to stain the gel with Coomassie blue to visualize the proteins within the gel.
To determine the effect of denaturants and metal ions on the activity of P. furiosus α-amylase activity, stained native-PAGE or in vitro activity assays were utilized.

[2] = molecular target: T1, Pyrococcus furiosus α-amylase, purified, wild type, SEQ ID NO:1; assay: standard activity assay in the presence of denaturants; type: biochemical; settings: reagent present at 1M, 98° C.
Protocol: The dextrinizing activity of the α-amylase was determined using a modification of the assay of Manning and Campbell (Manning et al, J. Biological Chem. 236(11):2952-2957 (1961)). To 20 μl of sample were added 20 μl of 1% soluble starch and 20 μl of 100 mM sodium phosphate, pH 7.0. Controls were prepared using an equal volume of the appropriate buffer in place of the enzyme solution. The samples were incubated at 92° C. for 10 minutes and the reaction terminated by cooling in ice water. Color was developed by the addition of 15 μl of an iodine solution (4% KI, 1.25% I). An additional 1 ml of distilled water was added to each sample to dilute the color of the sample to a measurable range. The absorbance was read at 600 nm with a Pharmacia LB Ultraspec III Spectrophotometer. One unit of α-amylase activity was defined as the amount of protein which hydrolyzed 1 mg of starch per minute.
The extent of activity loss induced by the denaturants, urea and guanidine HCl, was determined using a standard activity assay in which the above-mentioned reagents were present in 1M concentrations. At 98° C. the residual activity in the presence of these denaturants was 86.5% and 73% for urea and guanidine HCl, respectively.

| residual activity in the presence of denaturant [2] | SMILES | other results |
| --- | --- | --- |
|  | O=C(O)CN(CCN(CC(=O)O)CC(=O)O)CC(=O)O [EDTA] | effect on activity (activity stained native-PAGE) ([1]; 5 mM EDTA): no significant effect on activity |
| 73% | N=C(N)N [guanidine HCl] |  |
| 86.5% | NC(N)=O [urea] |  |
|  | OCCS [β-mercaptoethanol] | effect on activity (activity stained native-PAGE) ([1]; 2% β-mercaptoethanol): no significant effect on activity |
